The target in the assay is T1, 3-oxoacyl-[acyl-carrier-protein] synthase 3 (Mycobacterium tuberculosis (strain ATCC 25618 / H37Rv), UniProt P9WNG3).
T1 sequence (P9WNG3 whole entry): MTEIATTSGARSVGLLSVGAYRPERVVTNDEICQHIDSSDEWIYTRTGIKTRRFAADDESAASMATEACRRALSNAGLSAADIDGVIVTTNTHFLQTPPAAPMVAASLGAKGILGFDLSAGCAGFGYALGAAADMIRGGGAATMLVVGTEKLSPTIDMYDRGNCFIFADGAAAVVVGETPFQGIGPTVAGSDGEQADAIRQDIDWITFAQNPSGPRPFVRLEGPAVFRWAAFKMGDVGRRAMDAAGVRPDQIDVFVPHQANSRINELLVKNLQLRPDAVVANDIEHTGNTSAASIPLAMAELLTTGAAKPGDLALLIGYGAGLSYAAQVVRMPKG
Description: 3D-QSAR. As for the experimental part: The biological activities of the compounds were evaluated in the same laboratory. Biological activities measured as IC50 were converted to pIC50 (−log(IC50)) for use in the 3D-QSAR study.

Molecules are shown by their SMILES.

Turning to `CC(=O)Nc1cccc(-c2ccc(CC3(C)SC(=O)C(C)=C3O)cc2)c1` (centres undefined) [mtFabH inhibitor, 25], the half-maximal inhibitory concentration (IC50) (commonly the concentration that inhibits the measured activity by half) is 119 µM.
Under `CC(=O)c1ccc(C#CC2(C)SC(=O)C(C)=C2O)cc1` (centres undefined) [mtFabH inhibitor, 3] stands 4 µM; under `CCCCCCCCCCCCCC1(C)SC(=O)C(C)=C1O` (centres undefined) [mtFabH inhibitor, 26], 80 µM; under `C#CC1(C)SC(=O)C(C)=C1O` (centres undefined) [mtFabH inhibitor, 2], 100 µM.
Under `CC1=C(O)C(C)(Cc2ccccc2)SC1=O` (centres undefined) [mtFabH inhibitor, 9] stands 250 µM; under `CC1=C(O)C(C)(Cc2cccc(C(=O)c3ccccc3)c2)SC1=O` (centres undefined) [mtFabH inhibitor, 40], 283 µM; under `CC1=C(O)C(C)(C#CCc2ccc(C#N)cc2)SC1=O` (centres undefined) [mtFabH inhibitor, 7], 7 µM.
Under `COc1ccc(C2(C)SC(=O)C(C)=C2O)cc1` (centres undefined) [mtFabH inhibitor, 13] stands 500 µM; under `CC1=C(O)C(C)(Cc2ccc(C(F)(F)F)cc2)SC1=O` (centres undefined) [mtFabH inhibitor, 27], 100 µM; under `COC(=O)c1ccc(CC#CC2(C)SC(=O)C(C)=C2O)cc1` (centres undefined) [mtFabH inhibitor, 5], 74 µM.
For `CC1=C(O)C(C)(C#Cc2ccccc2C#N)SC1=O` (centres undefined) [mtFabH inhibitor, 8], the half-maximal inhibitory concentration (IC50) stood at 48 µM.
Under `COc1ccc(CC2(C)SC(=O)C(C)=C2O)cc1` (centres undefined) [mtFabH inhibitor, 12] stands 155 µM; under `CC1=C(O)C(C)(C#CCc2ccc([N+](=O)[O-])cc2)SC1=O` (centres undefined) [mtFabH inhibitor, 6], 34 µM.
The compound `CC(=O)c1ccc(C#CC2(C)SC(=O)C(C)=C2O)cc1O` (centres undefined) [mtFabH inhibitor, 4] yielded an IC50 of 7 µM.
